Reference: ChEMBL document CHEMBL3779887, “Robenidine Analogues as Gram-Positive Antibacterial Agents” (J Med Chem, 2016)
Values after ≈ are worked out from the molar mass of the structure shown. Active and inactive are the calls of the source. The rule behind the calls is not given here.

How the values were obtained:
Enterococcus = assay: Antibacterial activity against vancomycin-resistant Enterococcus after 20 to 24 hrs; type: functional
Pseudomonas aeruginosa [1] = assay: Antibacterial activity against Pseudomonas aeruginosa ATCC 27853 after 20 to 24 hrs; type: functional
Escherichia coli [2] = assay: Antibacterial activity against Escherichia coli ATCC 25922 after 20 to 24 hrs; type: functional
[3] = Selectivity ratio of MIC for methicillin-resistant Staphylococcus aureus to MIC for vancomycin-resistant Enterococcus; type: functional
Staphylococcus aureus [4] = assay: Antibacterial activity against methicillin-resistant Staphylococcus aureus after 20 to 24 hrs; type: functional
Staphylococcus aureus [5] = assay: Antibacterial activity against Staphylococcus aureus ATCC 29213 after 20 to 24 hrs in presence of 2% heat inactivated bovine serum; type: functional
Staphylococcus aureus [6] = assay: Bactericidal activity against […] Staphylococcus aureus clinical isolate USA300 assessed as log reduction in bacterial cell number at 4 times MIC after 24 hrs by time-kill curve analysis; type: functional, organism-based
Staphylococcus aureus [7] = assay: Ratio of MBC for methicillin-sensitive Staphylococcus aureus ATCC 25923 to MIC90 for methicillin-sensitive Staphylococcus aureus ATCC 25923; type: functional
[8] = Solubility of the compound at pH 6.5; type: physicochemical; details: buffer
Staphylococcus aureus [9] = assay: Bactericidal activity against […] Staphylococcus aureus clinical isolate USA300 assessed as log reduction in bacterial cell number at 2 times MIC after 8 hrs by time-kill curve analysis; type: functional
Staphylococcus aureus [10] = assay: Antibacterial activity against methicillin-resistant Staphylococcus aureus clinical isolate after 20 to 24 hrs; type: functional
Staphylococcus aureus [11] = assay: Bactericidal activity against […] Staphylococcus aureus clinical isolate USA300 assessed as log reduction in bacterial cell number at 4 times MIC after 8 hrs by time-kill curve analysis; type: functional
Staphylococcus aureus [12] = assay: Bactericidal activity against methicillin-sensitive Staphylococcus aureus ATCC 29213 assessed as log reduction in bacterial cell number at 4 times MIC after 8 hrs by time-kill curve analysis; type: functional
Staphylococcus aureus [13] = assay: Antibacterial activity against methicillin-sensitive Staphylococcus aureus ATCC 29213 after 20 to 24 hrs in presence of 50% heat inactivated bovine serum
Staphylococcus aureus [14] = assay: Antibacterial activity against methicillin-sensitive Staphylococcus aureus ATCC 6538 after 20 to 24 hrs in presence of 50% heat inactivated bovine serum; type: functional
[15] = Intrinsic clearance in human liver microsomes assessed per mg of protein; type: ADME; details: read-out: CLH
Escherichia coli [16] = assay: Antibacterial activity against Escherichia coli ATCC 25922 after 20 to 24 hrs in presence of polymyxin B nonapeptide; type: functional
Staphylococcus aureus [17] = assay: Bactericidal activity against methicillin-sensitive Staphylococcus aureus ATCC 29213 after 24 and 48 hrs; type: functional
Staphylococcus aureus [18] = assay: Antibacterial activity against methicillin-sensitive Staphylococcus aureus ATCC 25923 after 20 to 24 hrs; type: functional
[19] = Cytotoxicity against human HepG2 cells after 24 hrs by WST-1 based colorimetric assay; type: cell-based
[20] = Cytotoxicity against human HEL299 cells after 24 hrs by WST-1 based colorimetric assay; type: cell-based, HEL 299
Staphylococcus aureus [21] = assay: Bactericidal activity against […] Staphylococcus aureus clinical isolate USA300 assessed as log reduction in bacterial cell number at 2 times MIC after 24 hrs by time-kill curve analysis; type: functional, organism-based
Staphylococcus aureus [22] = assay: Bactericidal activity against Methicillin-sensitive Staphylococcus aureus ATCC 29213 assessed as log reduction in bacterial cell number at 2 times MIC after 24 hrs by time kill curve analysis; type: functional, organism-based
Staphylococcus aureus [23] = assay: Bactericidal activity against […] Staphylococcus aureus clinical isolate USA300 assessed as log reduction in bacterial cell number at MIC after 24 hrs by time-kill curve analysis; type: functional, organism-based
[24] = Selectivity index, ratio of GI50 for human HEL299 cells to MIC50 for methicillin-sensitive Staphylococcus aureus clinical isolate; type: functional, HEL 299
Staphylococcus aureus [25] = assay: Ratio of MBC for methicillin-sensitive Staphylococcus aureus ATCC 29213 to MIC90 for methicillin-sensitive Staphylococcus aureus ATCC 29213; type: functional
[26] = Selectivity index, ratio of GI50 for human HEL299 cells to MIC50 for methicillin-resistant Staphylococcus aureus clinical isolate; type: functional, HEL 299
Staphylococcus aureus [27] = assay: Ratio of MBC for methicillin-sensitive Staphylococcus aureus ATCC 49775 to MIC90 for methicillin-sensitive Staphylococcus aureus ATCC 49775; type: functional
Staphylococcus aureus [28] = assay: Antibacterial activity against methicillin-sensitive Staphylococcus aureus ATCC 49775 after 20 to 24 hrs in presence of 50% heat inactivated bovine serum; type: functional
[29] = Selectivity index, ratio of GI50 for human HepG2 cells to MIC50 for methicillin-resistant Staphylococcus aureus clinical isolate; type: functional
Staphylococcus aureus [30] = assay: Bactericidal activity against methicillin-sensitive Staphylococcus aureus clinical isolate USA300 assessed as log reduction in bacterial cell number at MIC after 8 hrs by time-kill curve analysis; type: functional
[31] = Half life of compound in mouse liver microsomes; type: ADME
Staphylococcus aureus [32] = assay: Bactericidal activity against […] Staphylococcus aureus clinical isolate USA300 assessed as log reduction in bacterial cell number at 8 times MIC after 24 hrs by time-kill curve analysis; type: functional, organism-based
[33] = Toxicity in sheep erythrocytes assessed as hemolysis at 600 uM after 30 mins; type: cell-based, Ovis aries; details: erythrocyte, 0.5 h
Pseudomonas aeruginosa [34] = assay: Antibacterial activity against Pseudomonas aeruginosa ATCC 27853 after 20 to 24 hrs in presence of polymyxin B nonapeptide; type: functional
[35] = Intrinsic clearance in mouse liver microsomes assessed per mg of protein; type: ADME; details: read-out: CLH
Staphylococcus aureus [36] = assay: Ratio of MBC for methicillin-sensitive Staphylococcus aureus ATCC 6538 to MIC90 for methicillin-sensitive Staphylococcus aureus ATCC 6538; type: functional
Staphylococcus aureus [37] = assay: Bactericidal activity against methicillin-sensitive Staphylococcus aureus ATCC 29213 assessed as log reduction in bacterial cell number at MIC after 8 hrs by time-kill curve analysis; type: functional
Staphylococcus aureus [38] = assay: Bactericidal activity against methicillin-sensitive Staphylococcus aureus ATCC 29213 assessed as log reduction in bacterial cell number at 2 times MIC after 8 hrs by time-kill curve analysis; type: functional
Staphylococcus aureus [39] = assay: Bactericidal activity against methicillin-sensitive Staphylococcus aureus ATCC 6538 after 24 and 48 hrs; type: functional
[40] = Half life of compound in human liver microsomes; type: ADME
Staphylococcus aureus [41] = assay: Antibacterial activity against methicillin-sensitive Staphylococcus aureus ATCC 49775 after 20 to 24 hrs; type: functional
Staphylococcus aureus [42] = assay: Bactericidal activity against methicillin-sensitive Staphylococcus aureus ATCC 29213 assessed as log reduction in bacterial cell number at 8 times MIC after 8 hrs by time-kill curve analysis; type: functional
Staphylococcus aureus [43] = assay: Bactericidal activity against Methicillin-sensitive Staphylococcus aureus ATCC 29213 assessed as log reduction in bacterial cell number at 8 times MIC after 24 hrs by time-kill curve analysis; type: functional, organism-based
Staphylococcus aureus [44] = assay: Antibacterial activity against methicillin-sensitive Staphylococcus aureus ATCC 29213 after 20 to 24 hrs; type: functional
[45] = Solubility of the compound at pH 2; type: physicochemical; details: buffer
Staphylococcus aureus [46] = assay: Bactericidal activity against methicillin-sensitive Staphylococcus aureus ATCC 49775 after 24 and 48 hrs; type: functional
[47] = Lipophilicity, logD of the compound at pH 3; type: physicochemical; details: buffer
[48] = Lipophilicity, logD of the compound at pH 7.4; type: physicochemical; details: buffer
[49] = Selectivity index, ratio of GI50 for human HepG2 cells to MIC50 for methicillin-sensitive Staphylococcus aureus clinical isolate; type: functional
Staphylococcus aureus [50] = assay: Antibacterial activity against methicillin-sensitive Staphylococcus aureus ATCC 29213 after 20 to 24 hrs in presence of 50% heat inactivated bovine serum; type: functional
Staphylococcus aureus [51] = assay: Bactericidal activity against methicillin-sensitive Staphylococcus aureus ATCC 25923 after 24 and 48 hrs; type: functional
Staphylococcus aureus [52] = assay: Antibacterial activity against methicillin-sensitive Staphylococcus aureus ATCC 6538 after 20 to 24 hrs; type: functional
Staphylococcus aureus [53] = assay: Bactericidal activity against methicillin-resistant Staphylococcus aureus clinical isolate after 24 and 48 hrs; type: functional
Staphylococcus aureus [54] = assay: Bactericidal activity against Methicillin-sensitive Staphylococcus aureus ATCC 29213 assessed as log reduction in bacterial cell number at 4 times MIC after 24 hrs by time kill curve analysis; type: functional, organism-based
Staphylococcus aureus [55] = assay: Bactericidal activity against […] Staphylococcus aureus clinical isolate USA300 assessed as log reduction in bacterial cell number at 8 times MIC after 8 hrs by time-kill curve analysis; type: functional
Staphylococcus aureus [56] = assay: Bactericidal activity against Methicillin-sensitive Staphylococcus aureus ATCC 29213 assessed as log reduction in bacterial cell number at MIC after 8 hrs by time kill curve analysis
Staphylococcus aureus [57] = assay: Antibacterial activity against methicillin-sensitive Staphylococcus aureus ATCC 29213 after 20 to 24 hrs in presence of 50% heat inactivated bovine serum; remark: listed apart in the source

Compound: N=C(N/N=C/c1cccc(Br)c1)N/N=C/c1cccc(Br)c1
- MIC (Enterococcus): 15.4 µM (≈ 6.52 µg/mL)
- MIC (Pseudomonas aeruginosa [1]): > 400 µM
- MIC (Escherichia coli [2]): > 400 µM
- Selectivity ratio [3]: 10
- MIC (Staphylococcus aureus [4]): > 400 µM

Compound: CC(C)(C)c1ccc(/C=N/NC(=N)N/N=C/c2ccc(C(C)(C)C)cc2)cc1
- MIC90 (Staphylococcus aureus [5]): 38.6 µM
- Activity (Staphylococcus aureus [6]): inactive
- Ratio (Staphylococcus aureus [7]): 1
- MIC (Enterococcus): 29 µM (≈ 10.9 µg/mL)
- solubility [8]: < 1.6 µg/mL
- Activity (Staphylococcus aureus [9]): >=4 log10CFU/ml
- MIC90 (Staphylococcus aureus [10]): 4.8 µM (≈ 1.81 µg/mL)
- Activity (Staphylococcus aureus [11]): >=4 log10CFU/ml
- Activity (Staphylococcus aureus [12]): >=4 log10CFU/ml
- MIC90 (Staphylococcus aureus [13]): > 250 µM
- MIC90 (Staphylococcus aureus [14]): > 250 µM
- microsomal CLint [15]: 89 µL/min/mg
- MIC90 (Escherichia coli [16]): > 250 µM
- MBC (Staphylococcus aureus [17]): 4.8 µM (≈ 1.81 µg/mL)
- MIC90 (Staphylococcus aureus [18]): 4.8 µM (≈ 1.81 µg/mL)
- GI50 at 24 h [19]: 26.3 µM
- GI50 at 24 h [20]: 28.8 µM
- Activity (Staphylococcus aureus [21]): inactive
- Activity (Staphylococcus aureus [22]): inactive
- Activity (Staphylococcus aureus [23]): inactive
- Selectivity Index [24]: 2
- Ratio (Staphylococcus aureus [25]): 1
- Selectivity Index [26]: 2
- Ratio (Staphylococcus aureus [27]): 1
- MIC (Pseudomonas aeruginosa [1]): > 400 µM
- MIC90 (Staphylococcus aureus [28]): > 250 µM
- Selectivity Index [29]: 2
- Activity (Staphylococcus aureus [30]): >=4 log10CFU/ml
- MIC (Escherichia coli [2]): > 400 µM
- half-life [31]: 25 min
- Activity (Staphylococcus aureus [32]): inactive
- Activity [33]: Non-toxic
- MIC90 (Pseudomonas aeruginosa [34]): > 250 µM
- microsomal CLint [35]: 70 µL/min/mg
- Ratio (Staphylococcus aureus [36]): 1
- Activity (Staphylococcus aureus [37]): >=4 log10CFU/ml
- Activity (Staphylococcus aureus [38]): >=4 log10CFU/ml
- MBC (Staphylococcus aureus [39]): 4.8 µM (≈ 1.81 µg/mL)
- half-life [40]: 20 min
- MIC90 (Staphylococcus aureus [41]): 4.8 µM (≈ 1.81 µg/mL)
- Activity (Staphylococcus aureus [42]): >=4 log10CFU/ml
- MIC (Staphylococcus aureus [4]): 24.2 µM (≈ 9.14 µg/mL)
- Activity (Staphylococcus aureus [43]): inactive
- MIC90 (Staphylococcus aureus [44]): 4.8 µM (≈ 1.81 µg/mL)
- solubility [45]: < 1.6 µg/mL
- MBC (Staphylococcus aureus [46]): 4.8 µM (≈ 1.81 µg/mL)
- logD [47]: 4.9
- logD [48]: > 5.3
- Selectivity Index [49]: 2
- MIC90 (Staphylococcus aureus [50]): > 250 µM
- MBC (Staphylococcus aureus [51]): 4.8 µM (≈ 1.81 µg/mL)
- MIC90 (Staphylococcus aureus [52]): 4.8 µM (≈ 1.81 µg/mL)
- MBC (Staphylococcus aureus [53]): 4.8 µM (≈ 1.81 µg/mL)
- Activity (Staphylococcus aureus [54]): inactive
- Activity (Staphylococcus aureus [55]): >=4 log10CFU/ml
- Activity (Staphylococcus aureus [56]): inactive
- MIC90 (Staphylococcus aureus [57]): > 250 µM
